Assay results as given in ChEMBL document CHEMBL3877258, “Targeting cytochrome P450 (CYP) 1B1 with steroid derivatives” (Bioorg Med Chem Lett, 2016).

The molecules below were run against T1, CYP1B1 (Homo sapiens, UniProt Q16678) (assay: Inhibition of recombinant human CYP1B1 expressed in bacterial microsomes co-expressing P450 reductase at 3 uM using 7-ethyl-O-resorufin as substrate after 45 mins in presence of NADPH by fluorescence assay relative to control). Settings: probe 7-ethyl-O-resorufin.
T1 sequence (Q16678 whole entry): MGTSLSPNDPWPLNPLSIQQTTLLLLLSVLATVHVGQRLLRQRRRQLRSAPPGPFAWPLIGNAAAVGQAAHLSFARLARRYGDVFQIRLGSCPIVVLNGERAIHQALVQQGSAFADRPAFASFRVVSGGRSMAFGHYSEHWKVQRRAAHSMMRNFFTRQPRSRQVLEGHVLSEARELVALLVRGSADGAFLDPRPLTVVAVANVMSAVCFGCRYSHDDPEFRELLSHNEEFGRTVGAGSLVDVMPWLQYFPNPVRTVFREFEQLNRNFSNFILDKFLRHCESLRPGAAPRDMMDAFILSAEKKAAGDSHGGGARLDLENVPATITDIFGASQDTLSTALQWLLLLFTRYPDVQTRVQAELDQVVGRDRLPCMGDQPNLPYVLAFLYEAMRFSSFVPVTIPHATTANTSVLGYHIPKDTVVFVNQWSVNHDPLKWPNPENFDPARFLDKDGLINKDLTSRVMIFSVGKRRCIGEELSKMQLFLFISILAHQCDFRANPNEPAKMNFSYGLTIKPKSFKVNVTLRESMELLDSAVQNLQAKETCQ

SMILES | inhibition at 0.75 h, 3 µM [%]
CCc1ccc2c(c1)CC[C@@H]1[C@@H]2CC[C@]2(C)C(=O)CC[C@@H]12 | 42.8
C[C@]12CC[C@@H]3c4ccccc4C(O)C[C@H]3[C@@H]1CC[C@@H]2O (stereo not given in full) | 20
C[C@]12CC[C@@H]3c4ccccc4C(=O)C[C@H]3[C@@H]1CCC2=O | 16
CCCCCCCN[C@H]1CC[C@H]2[C@@H]3CCc4ccc(OC)cc4[C@H]3CC[C@]12C | 9.4
C[C@]12CC[C@@H]3c4ccc(O)cc4CC[C@H]3[C@@H]1C[C@@H](CCCBr)[C@@H]2O | 2
C[C@]12CC[C@@H]3c4ccccc4CC[C@H]3[C@@H]1CCC2=O | 11.3
C[C@]12CC[C@@H]3c4ccc(S)cc4CC[C@H]3[C@@H]1CCC2=O | 61.1 to 61.6
C[C@]12CC[C@@H]3c4ccc(C5CO5)cc4CC[C@H]3[C@@H]1CCC2=O (stereo not given in full) | 12.4
C[C@]12CC[C@@H]3c4cc([N+](=O)[O-])c(O)c([N+](=O)[O-])c4CC[C@H]3[C@@H]1CC[C@@H]2O | 11.4
COc1cc2c(cc1O)CC[C@@H]1[C@@H]2CC[C@@]2(C)[C@H]1CC[C@@]2(O)Cc1ccccc1 | 0
Cc1ccc(S(=O)(=O)/N=S(\C)c2ccc3c(c2)CC[C@@H]2[C@@H]3CC[C@]3(C)C(=O)CC[C@@H]23)cc1 (stereo not given in full) | 0.1
C[C@]12CC[C@@H]3c4ccc(OC(N)=O)cc4CC[C@H]3[C@@H]1CCC2=O | 9.9
CCCCCCCN(C=O)[C@H]1CC[C@H]2[C@@H]3CCc4cc(OC)ccc4[C@H]3CC[C@]12C | 3.5
C[C@]12CC[C@@H]3c4ccc(O)cc4CC[C@H]3[C@@H]1C[C@H](CCCNC(=O)C(Cc1ccccc1)NC(=O)Cc1ccccc1)[C@@H]2O (stereo not given in full) | 7.7
C[C@]12CC[C@@H]3c4ccc(C(=O)O)cc4CC[C@H]3[C@@H]1CCC2=O | 11.5
C[C@]12CC[C@@H]3c4ccc(OS(N)(=O)=O)cc4CC[C@H]3[C@@H]1C[C@H](CCCNC(=O)C1CCCN1C(=O)Cc1ccccc1)[C@@H]2O (stereo not given in full) | 21.4
C[C@]12CC[C@@H]3c4ccc(O)cc4C(=O)C[C@H]3[C@@H]1CC[C@@H]2O | 9.7
C[C@]12CC[C@@H]3c4ccc(O)c(Br)c4CC[C@H]3[C@@H]1CC[C@@H]2O | 29
O=c1cc(-c2ccccc2)oc2c1ccc1ccccc12 [ALPHA-NAPHTHOFLAVONE] | 89.2
C[C@]12CC[C@@H]3c4ccc(OS(N)(=O)=O)cc4CC[C@H]3[C@@H]1C[C@H](CCCNC(=O)C(Cc1ccccc1)NC(=O)Cc1ccccc1)[C@@H]2O (stereo not given in full) | 22.8
Cc1cc2c(cc1O)CC[C@@H]1[C@@H]2CC[C@]2(C)[C@@H](O)CC[C@@H]12 | 1
CCCCCCCN(C=O)[C@H]1CC[C@H]2[C@@H]3CCc4cc(O)ccc4[C@H]3CC[C@]12C | 0

SMILES | inhibition at 0.75 h, 3 µM [%]
C[C@]12CC[C@@H]3c4cc(Br)c(O)cc4CC[C@H]3[C@@H]1CC[C@@H]2O | 22.6
COc1cc2c(cc1OS(N)(=O)=O)CC[C@@H]1[C@@H]2CC[C@]2(C)[C@@H](O)CC[C@@H]12 | 23.8
C[C@]12CC[C@@H]3c4ccc(N)cc4CC[C@H]3[C@@H]1CCC2=O | 16.2
COc1cc2c(cc1O)CC[C@@H]1[C@@H]2CC[C@]2(C)[C@@H](O)CC[C@@H]12 [2-METHOXYESTRADIOL] | 4.4
CCS(=O)(=O)Oc1ccc2c(c1)CC[C@@H]1[C@@H]2CC[C@]2(C)C(=O)CC[C@@H]12 | 0.3
C[C@]12CC[C@@H]3c4ccc(O)c(F)c4CC[C@H]3[C@@H]1CC[C@@H]2O | 7.5
C[C@]12CC[C@@H]3c4ccc(OS(N)(=O)=O)cc4CC[C@H]3[C@@H]1CCC2=O [EMATE] | 8.6
COc1cc2c(cc1O)CC[C@@H]1[C@@H]2CC[C@]2(C)C(=O)CC[C@@H]12 | 13.2
COc1cc2c(cc1OS(N)(=O)=O)CC[C@@H]1[C@@H]2CC[C@@]2(C)[C@H]1CC[C@@]2(O)Cc1ccccc1 | 7.7
C[C@]12CC[C@@H]3c4ccc(O)cc4CC[C@H]3[C@@H]1CC[C@@]21CCC(=O)O1 | 13.9
C[C@]12CC[C@@H]3c4ccc(NC(=O)O)cc4CC[C@H]3[C@@H]1CCC2=O | 8.9
C[C@]12CC[C@@H]3c4cc(F)c(O)cc4CC[C@H]3[C@@H]1CC[C@@H]2O | 28.7
CNS(=O)(=O)Oc1cc2c(cc1OS(=O)(=O)NC)[C@H]1CC[C@]3(C)C(=O)CC[C@H]3[C@@H]1CC2 | 30.3
C[C@]12CC[C@@H]3c4cc(Br)c(O)c(Br)c4CC[C@H]3[C@@H]1CC[C@@H]2O | 1
CC(=O)c1ccc(C(=O)N2CCCC2C(=O)NCCCCCCCCCCC[C@@H]2Cc3cc(O)ccc3[C@H]3CC[C@]4(C)[C@@H](O)CC[C@H]4[C@H]23)cc1 (stereo not given in full) | 22.1
C[C@]12CC[C@@H]3c4ccc(OS(=O)(=O)O)cc4CC[C@H]3[C@@H]1CC[C@@H]2O | 0.9
C[C@]12CC[C@@H]3c4ccc([N+](C)(C)[O-])cc4CC[C@H]3[C@@H]1CCC2=O | 36.6
C[C@]12CC[C@@H]3c4ccc(OCCBr)cc4CC[C@H]3[C@@H]1CC[C@@H]2O | 11.1
C[C@]12CC[C@@H]3c4ccc(OS(N)(=O)=O)cc4CC[C@H]3[C@@H]1CC[C@@]2(O)CN1CCN(C(=O)[C@H](Cc2ccccc2)NC(=O)CCC2CCCC2)CC1 | 14.9
C#C[C@]1(O)CC[C@H]2[C@@H]3CCc4c(ccc(O)c4Br)[C@H]3CC[C@@]21C | 7.5
COc1ccc2c(c1)CC[C@@H]1[C@@H]2CC[C@]2(C)C(=O)CC[C@@H]12 | 2
C#C[C@]1(O)CC[C@H]2[C@@H]3CCc4cc(O)c(Br)cc4[C@H]3CC[C@@]21C | 8.4

Each molecule was assayed against T2, Cytochrome P450 1B1 (Homo sapiens, UniProt Q16678) (assay: Inhibition of recombinant human CYP1B1 expressed in bacterial microsomes co-expressing P450 reductase using 7-ethyl-O-resorufin as substrate after 45 mins in presence of NADPH by fluorescence assay). Settings: not given.
T2 sequence (Q16678 whole entry): T1 sequence (Q16678 whole entry)

SMILES | IC50 [µM]
C[C@]12CC[C@@H]3c4ccc(S)cc4CC[C@H]3[C@@H]1CCC2=O | 3.4
